From patent publication US8178699B2, “Modulators of CCR9 receptor and methods of use thereof” (Pfizer Inc., priority 2008, dated 2012) come the findings set out here.

Where a name gives a salt, the structure may show the parent alone.

One may read the IC50 as the concentration at which inhibition is half-maximal.

This test concerns the target T1, human CCR9 receptor (Homo sapiens, UniProt P51686).
T1 construct: expressed in transfected cells
T1 sequence (P51686 1-369): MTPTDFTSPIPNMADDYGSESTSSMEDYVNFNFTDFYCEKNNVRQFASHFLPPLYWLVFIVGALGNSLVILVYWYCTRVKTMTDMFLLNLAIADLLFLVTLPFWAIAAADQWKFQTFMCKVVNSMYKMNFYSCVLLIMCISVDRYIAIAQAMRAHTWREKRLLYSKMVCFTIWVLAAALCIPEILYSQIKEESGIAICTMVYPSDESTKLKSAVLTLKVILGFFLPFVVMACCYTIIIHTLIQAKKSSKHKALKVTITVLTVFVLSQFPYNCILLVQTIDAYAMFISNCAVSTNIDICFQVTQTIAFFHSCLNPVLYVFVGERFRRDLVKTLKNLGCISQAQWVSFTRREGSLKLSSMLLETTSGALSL
Kind of test: CCR9 FLIPR/FlexStation Assay (inhibition of TECK induced calcium mobilization). It counts as cell-based. The following applies: CCR9 antagonist activity; TECK induced calcium mobilization in CCR9-Flp-CHO cells stably over expressing human CCR9; rhTECK at EC70; read-out: Binding IC50. The source says: Exemplary methods are described in US Publication Nos. US2004/0180892 and US2005/0049286, which are incorporated herein by reference. An exemplary assay for determining CCR9 antagonist activity of the compounds provided herein is CCR9 FLIPR/FlexStation Assay. In certain embodiments, the following protocol is used for the assay:
CCR9 FLIPR/FlexStation Assay Protocol
Calcium assay in FLIPR/FlexStation determines inhibitors of TECK induced calcium mobilization in CCR9-Flp-CHO cells that stably over express human CCR9 receptor. CCR9-Flp-CHO cells are seeded at 25,000 cells/well in a clear bottom, black wall 96-well plate (Greiner #655090) one day prior to assay. Cells are grown in a tissue culture incubator at 37° C. with 5% CO2 for 18 to 24 hours.
Wash buffer and dye loading buffer are prepared fresh each time the assay is performed. Wash buffer is prepared according to the following protocol: 20 ml 10×HBSS (Invitrogen Gibco #14065-056), 4 ml 1M HEPES (Sigma H3784), 174 ml sterile deionized water; then add 140 mg probenecid (Sigma P8761) dissolved in 2 ml 1M NaOH (Fisher S318) to solution and pH to 7.4. This wash buffer contains 1×HBSS, 20 mM HEPES and 2.5 mM probenecid. For one 96-well plate, dye loading buffer is prepared as following: 11 ml wash buffer, 44 μl Fluo-4/pluoronic acid mix (prepared from 22 μL aliquot of 2 mM Fluo-4 (Molecular Probes F14202, 1 mg/tube)+22 μl 20% pluronic F-127 (Molecular Probes P3000MP).
Cells are loaded with dye according to the protocol below:
1. Prepare wash buffer with 1×HBSS/HEPES at room temperature
2. Prepare loading buffer (keep in dark)
3. Aspirate culture media and wash with 100 μl wash buffer per well×1
4. Add 100 μl dye loading buffer to each well
5. Incubate at 37° C. for 30 minutes
6. Aspirate loading buffer
7. Wash with 100 μl wash buffer per well×3
8. Add 100 μl wash buffer per well
9. Incubate at 37° C. for 30 minutes
10. Assay plate with FLIPR or FlexStation
10 mM stock compounds in DMSO are prepared and diluted in DMSO to 1 mM. Compounds are diluted in wash buffer to make 8 point series dilutions containing same final concentration of DMSO (1%). Compounds are tested in duplicate wells for each point. Ligand rhTECK (R&D Systems 334-TK) was diluted to 6× of its EC70 with wash buffer. Appropriate amount of 6× ligand is added to each well. Data is analyzed using XLfit3 software to calculate IC50 value of antagonist activity for each compound.
CCR9 antagonist activity of exemplary compounds was determined using CCR9 FLIPR/FlexStation Assay as described in Section 4.4 and is provided in Table 1 below. The IC50 for the compounds are represented as follows: A≦100 nM; B>100-500 nM; C>500 nM.
A general note: Calcium assays in cells follow changes in intracellular calcium, usually with a dye or a luminescent sensor.
Consider `CC(C)(C)c1ccc(S(=O)(=O)Nc2ccsc2C(=O)O)c(-c2ccoc2)c1` [Example 60, 3-[4-tert-butyl-2-(furan-3-yl)-phenylsulfonamido]thiophene-2-carboxylic acid, disodium salt], for which the concentration for half-maximal inhibition (IC50) fell in the range of 100 to 500 nM.
Then `O=C(O)c1sccc1NS(=O)(=O)c1ccc(-n2cccn2)cc1` [Example 31, 3-[4-(1H-pyrazol-1-yl)phenylsulfonamido]thiophene-2-carboxylic acid, disodium salt], with more than 500 nM; and `O=C(O)c1sccc1NS(=O)(=O)c1ccc(C2CCCC2)cc1F` [Example 36, 3-(4-cyclopentyl-2-fluorophenylsulfonamido)thiophene-2-carboxylic acid, disodium salt], with not above 100 nM.
Then `CC(C)(C)c1ccc(S(=O)(=O)Nc2ccsc2C(=O)O)c(/C=C/C(=O)O)c1` [Example 30, 3-[4-tert-butyl-2-(2-carboxyvinyl)phenylsulfonamido]thiophene-2-carboxylic acid, trisodium salt], with more than 500 nM.
For the compound `CC1(C)CCC(C)(C)c2cc(S(=O)(=O)Nc3ccsc3C(=O)O)ccc21` [Example 49, 3-(5,5,8,8-tetramethyl-5,6,7,8-tetrahydronaphthalene-2-sulfonamido)thiophene-2-carboxylic acid, disodium salt], the IC50 is more than 500 nM.
Then `CCCc1cc(C(C)(C)C)ccc1S(=O)(=O)Nc1ccsc1C(=O)O` [Example 56, 3-(4-tert-butyl-2-propylphenylsulfonamido)thiophene-2-carboxylic acid, disodium salt], with not above 100 nM.
